Like-named read-outs stand apart in the source and are kept apart here.
Assays:
[1] = tested on: T lymphocyte proliferation (C57BI/6 spleen cells with irradiated BALB/c spleen cells); experiment: Mixed lymphocyte reaction (MLR), one-way; format: cell-based, mice
How it was run: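 One-way murine MLR: C57BI/6 responder splenocytes proliferate against irradiated BALB/c stimulators while exposed to serially diluted antagonists in supplemented RPMI1640 for 3 days. Proliferation read as [3H]-thymidine uptake over a final 6 h pulse (0.5 μCi/well), scintillation counted.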

[2] = molecular target: T1, ICAM-1 binding to immobilized Mac-1 (Homo sapiens, UniProt P05107+P11215); experiment: Mac-1/ICAM-1 screening assay (solid-phase ELISA)
T1 construct: made in house; host or cells: transfected 293 cells (Mac-1)
Procedure: (b) Mac-1/ICAM-1 screening test: Mac-1/ICAM-1 antagonist activity, defined as the ability to compete with ICAM-1 binding to immobilized Mac-1, was quantitated by a solid-phase ELISA.
(§1) Membrane-bound Mac-1 derived from transfected 293 cells was coated onto 96-well microtiter plates (50 μL/well, 3 μg/mL Mac-1 in 20 mM Hepes, pH 7.2/0.14 M NaCl/1 mM MnCl2) overnight at 4° C. The plates were blocked with 100 μL/well of 0.5% BSA in 20 mM Hepes, pH 7.2/0.14 M NaCl/1 mM MnCl2 at 37° C. for 1 h and washed 3 times (120 μL each) with Binding Buffer (20 mM Hepes, pH 7.2/0.14 M NaCl/1 mM MnCl2/0.05% Tween 20). Test compounds were dissolved in 100% DMSO and diluted 1:50 in Binding Buffer plus 10% DMSO. A series of 1:4 dilutions were performed for each compound (concentration range, 0.12 nM-20 μM). Each dilution (25 μL/well) was added to the plates, followed by 25 μL/well of 5 dICAM-Ig (40 μg/mL in Binding Buffer). The plates were shaken vigorously for 1 min (room temperature), followed by gentle agitation for 2 h (37° C.), and washed with Binding Buffer (3 times, 120 μL each). HRP-conjugated goat anti-human IgG(Fc-specific) antibody (0.125 μg/mL in Binding Buffer plus 0.05% BSA) was added to each well (50 μL/well), followed by incubation for 1 h at 37° C. The plates were then washed 3 times with Binding Buffer (120 μL each). TMB solution (100 μL/well) was added to each well for color development for 10 min. The reaction was stopped with 1 M H3PO4 (100 μL/well) and the plates were read at 450 nm. The inhibitory activities of test compounds were determined by the IC50s.
as §1, with “Mac-1/ICAM-1 antagonist activity, defined as the ability to compete with ICAM-1 binding to immobilized Mac-1, was quantitated by a solid-phase ELISA. Membrane-bound” for “Membrane-bound”, “5dICAM-Ig” for “5 dICAM-Ig”, “nm.” for “nm. The inhibitory activities of test compounds were determined by the IC50s.”

[3] = Mus musculus, T-lymphocyte; read-out: MLR IC50
[4] = read-out: Mac-1/ICAM-1 Protein-Protein Assay IC50
[5] = Mus musculus, T-lymphocyte, read-out: MLR IC50
[6] = Mac-1/ICAM-1 Protein-Protein Assay IC50

T1 sequence (P05107 23-769, other chains not shown): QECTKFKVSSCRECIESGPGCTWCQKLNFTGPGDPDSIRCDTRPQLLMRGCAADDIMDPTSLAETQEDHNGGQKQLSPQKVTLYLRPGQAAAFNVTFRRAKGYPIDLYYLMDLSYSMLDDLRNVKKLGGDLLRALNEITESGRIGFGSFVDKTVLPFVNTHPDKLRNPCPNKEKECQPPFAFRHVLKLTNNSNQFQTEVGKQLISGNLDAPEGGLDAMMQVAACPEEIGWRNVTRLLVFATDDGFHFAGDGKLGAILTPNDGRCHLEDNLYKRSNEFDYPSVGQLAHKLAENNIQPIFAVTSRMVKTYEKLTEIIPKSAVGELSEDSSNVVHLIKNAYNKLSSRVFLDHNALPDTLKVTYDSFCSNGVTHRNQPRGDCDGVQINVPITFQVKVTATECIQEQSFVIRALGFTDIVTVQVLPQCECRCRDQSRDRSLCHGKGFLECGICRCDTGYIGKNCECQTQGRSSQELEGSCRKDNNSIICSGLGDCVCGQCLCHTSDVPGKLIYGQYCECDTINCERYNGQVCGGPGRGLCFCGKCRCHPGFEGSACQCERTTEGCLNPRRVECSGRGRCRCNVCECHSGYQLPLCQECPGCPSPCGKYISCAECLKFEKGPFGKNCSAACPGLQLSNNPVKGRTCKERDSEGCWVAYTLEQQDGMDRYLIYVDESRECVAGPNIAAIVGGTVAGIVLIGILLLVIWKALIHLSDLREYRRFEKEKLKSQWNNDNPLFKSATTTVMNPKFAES

Compound	IC50 [1, 3] [nM]	IC50 [2, 4] [nM]	IC50 [1, 5] [nM]	IC50 [2, 6] [nM]
O=C(CC1CCCCC1)NC[C@H](NC(=O)c1ccc(C(=O)NCc2cccc(O)c2)cc1Cl)C(=O)O [Example 78]	1020	94	–	–
O=C(Cc1ccccc1)NC[C@H](NC(=O)c1ccc(C(=O)NCc2cccc(O)c2)cc1Cl)C(=O)O [Example 79]	2500	74	–	–
COc1ccc(CC(=O)NC[C@H](NC(=O)c2ccc(C(=O)NCc3cccc(O)c3)cc2Cl)C(=O)O)cc1 [Example 80]	1800	134	–	–
O=C(Cc1ccc([N+](=O)[O-])cc1)NC[C@H](NC(=O)c1ccc(C(=O)NCc2cccc(O)c2)cc1Cl)C(=O)O [Example 81]	1650	58	–	–
O=C(Cc1cccc(C(F)(F)F)c1)NC[C@H](NC(=O)c1ccc(C(=O)NCc2cccc(O)c2)cc1Cl)C(=O)O [Example 82]	1700	62	–	–
O=C(Cc1ccc([N+](=O)[O-])cc1[N+](=O)[O-])NC[C@H](NC(=O)c1ccc(C(=O)NCc2cccc(O)c2)cc1Cl)C(=O)O [Example 83]	–	–	460	58
O=C(Cc1cccs1)NC[C@H](NC(=O)c1ccc(C(=O)NCc2cccc(O)c2)cc1Cl)C(=O)O [Example 84]	1300	60	–	–
O=C(NCc1cccc(O)c1)c1ccc(C(=O)N[C@@H](CNC(=O)C(c2ccccc2)c2ccccc2)C(=O)O)c(Cl)c1 [Example 86]	4150	179	–	–
O=C(Cc1ccc2ccccc2c1)NC[C@H](NC(=O)c1ccc(C(=O)NCc2cccc(O)c2)cc1Cl)C(=O)O [Example 87]	1300	87	–	–
O=C(CC1c2ccccc2-c2ccccc21)NC[C@H](NC(=O)c1ccc(C(=O)NCc2cccc(O)c2)cc1Cl)C(=O)O [Example 88]	12500	273	–	–
O=C(C[n+]1csc2ccccc21)NC[C@H](NC(=O)c1ccc(C(=O)NCc2cccc(O)c2)cc1Cl)C(=O)O [Example 89]	10500	464	–	–
O=C(CSc1ncccn1)NC[C@H](NC(=O)c1ccc(C(=O)NCc2cccc(O)c2)cc1Cl)C(=O)O [Example 91]	2450	174	–	–
CC(C)(C)C(=O)NC[C@H](NC(=O)c1ccc(C(=O)NCc2cccc(O)c2)cc1Cl)C(=O)O [Example 92]	900	48	–	–
O=C(NCc1cccc(O)c1)c1ccc(C(=O)N[C@@H](CNC(=O)C23CC4CC(CC(C4)C2)C3)C(=O)O)c(Cl)c1 [Example 93]	525	57	–	–
O=C(CCc1ccccc1)NC[C@H](NC(=O)c1ccc(C(=O)NCc2cccc(O)c2)cc1Cl)C(=O)O [Example 94]	1400	42	–	–
O=C(NCc1cccc(O)c1)c1ccc(C(=O)N[C@@H](CNC(=O)c2cc([N+](=O)[O-])cc([N+](=O)[O-])c2)C(=O)O)c(Cl)c1 [Example 129]	–	–	3000	37
O=C(NCc1cccc(O)c1)c1ccc(C(=O)N[C@@H](CNC(=O)c2cnccn2)C(=O)O)c(Cl)c1 [Example 170]	560	116	–	–
O=C(NCc1cccc(O)c1)c1ccc(C(=O)N[C@@H](CNC(=O)c2cnc3ccccc3c2)C(=O)O)c(Cl)c1 [Example 183]	4600	222	–	–
O=C(NCc1cccc(O)c1)c1ccc(C(=O)N[C@@H](CNC(=O)c2cc(=O)c3ccccc3o2)C(=O)O)c(Cl)c1 [Example 187]	2800	56	–	–
O=C(NCc1cccc(O)c1)c1ccc(C(=O)N[C@@H](CNC(=O)c2ccc3c(c2)S(=O)(=O)c2ccccc2C3=O)C(=O)O)c(Cl)c1 [Example 192]	1700	40	–	–

Compound	IC50 [1, 3] [nM]	IC50 [2, 4] [nM]	IC50 [1, 5] [nM]	IC50 [2, 6] [nM]
CC(=O)NC[C@H](NC(=O)c1ccc(C(=O)NCc2cccc(O)c2)cc1Cl)C(=O)O [Example 193]	830	49	–	–
CC(C)C(=O)NC[C@H](NC(=O)c1ccc(C(=O)NCc2cccc(O)c2)cc1Cl)C(=O)O [Example 194]	800	36	–	–
CC(C)CC(=O)NC[C@H](NC(=O)c1ccc(C(=O)NCc2cccc(O)c2)cc1Cl)C(=O)O [Example 195]	840	47	–	–
CSCC[C@H](N)C(=O)NC[C@H](NC(=O)c1ccc(C(=O)NCc2cccc(O)c2)cc1Cl)C(=O)O [Example 197]	22500	38	–	–
NCCCC[C@H](N)C(=O)NC[C@H](NC(=O)c1ccc(C(=O)NCc2cccc(O)c2)cc1Cl)C(=O)O [Example 198]	21500	48	–	–
N[C@@H](Cc1ccccc1)C(=O)NC[C@H](NC(=O)c1ccc(C(=O)NCc2cccc(O)c2)cc1Cl)C(=O)O [Example 199]	19000	36	–	–
NC(=O)C[C@H](N)C(=O)NC[C@H](NC(=O)c1ccc(C(=O)NCc2cccc(O)c2)cc1Cl)C(=O)O [Example 200]	3100	33	–	–
N[C@@H](Cc1c[nH]c2ccccc12)C(=O)NC[C@H](NC(=O)c1ccc(C(=O)NCc2cccc(O)c2)cc1Cl)C(=O)O [Example 201]	17300	49	–	–
N[C@@H](CCC(=O)NC[C@H](NC(=O)c1ccc(C(=O)NCc2cccc(O)c2)cc1Cl)C(=O)O)C(=O)O [Example 202]	500	37	–	–
O=C(NC[C@H](NC(=O)c1c(Cl)cccc1Cl)C(=O)O)c1ccccc1 [Example 219]	7250	319	–	–
O=C(NC[C@H](NC(=O)c1c(Cl)cccc1Cl)C(=O)O)c1ccc(Br)s1 [Example 223]	3600	82	–	–
O=C(NC[C@H](NC(=O)c1c(F)cccc1Cl)C(=O)O)c1ccc(Br)s1 [Example 224]	11100	377	–	–
O=C(NC[C@H](NC(=O)c1c(F)cccc1Cl)C(=O)O)c1ccc2[nH]nnc2c1 [Example 226]	–	273	–	–
Cc1nnsc1C(=O)NC[C@H](NC(=O)c1ccc(C(=O)NCc2cccc(O)c2)cc1Cl)C(=O)O [Example 255]	1850	41	–	–
COc1c(C(=O)NC[C@H](NC(=O)c2ccc(C(=O)NCc3cccc(O)c3)cc2Cl)C(=O)O)csc1Cl [Example 258, N-[2-chloro-4-[[[(3-hydroxyphenyl)methyl]amino]carbonyl]benzoyl]-3-(5-chloro-4-methoxythiophene-3-carbonyl)amino-L-alanine]	3750	26	–	–
NC1(C(=O)NC[C@H](NC(=O)c2ccc(C(=O)NCc3cccc(O)c3)cc2Cl)C(=O)O)CCCC1 [Example 263]	2100	27	–	–
N[C@H]1CC[C@@H](C(=O)NC[C@H](NC(=O)c2ccc(C(=O)NCc3cccc(O)c3)cc2Cl)C(=O)O)CC1 [Example 264]	1950	25	–	–
Nc1cccn(CC(=O)NC[C@H](NC(=O)c2ccc(C(=O)NCc3cccc(O)c3)cc2Cl)C(=O)O)c1=O [Example 266]	3050	306	–	–
O=C(O)c1cccc(C(=O)NC[C@H](NC(=O)c2ccc(C(=O)NCc3cccc(O)c3)cc2Cl)C(=O)O)c1 [Example 297]	1650	81	–	–
O=C(O)CCCC(=O)NC[C@H](NC(=O)c1ccc(C(=O)NCc2cccc(O)c2)cc1Cl)C(=O)O [Example 298]	1800	298	–	–

— US20040006236A1, “Diaminopropionic acid derivatives” (priority 1999, published 2004)
